Measurements published in patent US20080175927A1, “METHOD FOR PREVENTING PLANT DISEASES” (priority 2005, published 2008).
Marks after values point to notes of the source that are not given here.

Key:
glomellera cingurata = assay: Paper disk method, growth inhibition by TLC-purified berberine and derivatives; type: cell-based; set-up: key: ++: strong inhibition; +: moderate inhibition; −: no inhibition; details: purified from TLC
Source text: (§1) To confirm antimicrobial activity of berberine and derivative thereof, we collected TLC bands of berberine and derivative thereof and investigated antimicrobial activity of berberine and derivative thereof against known plant pathogens using paper disk method (Ericsson, H., Hogman, C & Wickman. K. 1954, Scandinavian Journal of Clinical Laboratory Investigation 6, Suppl. 11:21-26). […] Therefore, the result of the aforementioned HPLC analysis, ^1H NMR analysis and antimicrobial activity, the active antimicrobial compound exisisting in the extract of Coptis Rhizoma, Phellodendron genus plant, Sanguniaria canadensis, and Chelidonuum majus var. asiaticum was identified as berberine or derivatives thereof.

damping-off of cucumber = assay: as above; type: cell-based, Pythium ultimum; set-up: key: ++: strong inhibition; +: moderate inhibition; −: no inhibition; details: purified from TLC
Source text: as §1

[1] = tested on: gray mold rot of strawberry; assay: as above; type: cell-based, Botrytis cinerea; set-up: key: ++: strong inhibition; +: moderate inhibition; −: no inhibition; details: purified from TLC
Source text: as §1

[2] = tested on: Sphaerotheca aphanis var. aphanis; assay: Preventive test against strawberry powdery mildew, disease incidence rate; type: in vivo; details: for PR (prevention rate): 7 days after treatment; for DIR B (disease incident rate 7 days after treatment), I: replicate I; for DIR B (disease incident rate 7 days after treatment), II: replicate II; for DIR B (disease incident rate 7 days after treatment), III: replicate III
Protocol: To measure prevention effect against powdery mildew of extract of Coptis Rhizoma, Phellodendron amurense, Sanguniaria canadensis and Chelidonuum majus var. asiaticum and berberine and its derivative, we performed a preventive test agaist strawberry powdery mildew resulted from infection of Sphaerotheca aphanis var. aphanis using the standard extract obtained by Example 1 or berberine and derivative thereof. The above extract (30 mL) obtained from 10 g of fresh plant materials was dissolved in 200 μg/ml of Tween 20 solution. Final concentration of berberine and derivatives thereof was 400 μg/ml. Negative control was prepared by adding 250 μg/ml of Tween 20 in distilled water. As a positive control reagent, 30% solution of Rifzol wettable powder (Rifzol W P, Aventis Corp Science, Korea) is used and the Rifzol solution was diluted 1:4000 and treated with amount of 75 μg/ml which is common packing concentration.
In house condition of sandy-loamy soil, disease incidence rate was determined 7 days after treatment of the above mentioned reagents compared to one of non-treatment control and the test was repeated 3 times by randomized Block Design.
Before treatment of the reagents, the disease incidence rate of strawberry powdery mildew was 34.1%. The disease incidence rate is defined as percentage of disease developed plants among total investigated plants.
We investigated preventive effects of standard forms of berberine chloride, berberine iodide and berberine bromide and the standard extract obtained by Example 1 against strawberry powdery mildew at various concentrations according to the method of Example 4. […] When the freeze-dried standard extract obtained by Example 1 was used at concentration of at least 1 μg/ml or preferably 10 μg/ml, it prevented strawberry powdery mildew resulted from an infection of Sphaerotheca aphanis var. aphanis. From the above effect, the present inventors confirmed that the standard extract could substitute for synthetic chemical pesticides.

[3] = extracts 30 mL from 10 g plant, berberine salts 400 μg/ml, Rifzol 75 μg/ml
[4] = mean of I-III, extracts 30 mL from 10 g plant, berberine salts 400 μg/ml, Rifzol 75 μg/ml, negative control 19.0

In the case of `COc1ccc2cc3[n+](cc2c1OC)CCc1cc2c(cc1-3)OCO2.[Br-]` [berberine bromine, berberine bromide], the “Growth inhibition, glomellera cingurata” value (glomellera cingurata) is reported as “+”, the “Growth inhibition, damping-off of cucumber” value (damping-off of cucumber) is reported as “+” and the “Growth inhibition, gray mold rot of strawberry” value (“Growth inhibition, gray mold rot” for short) [1] is reported as “+”. For the same compound, the “PR (prevention rate)” value ([2]; 1 μg/ml) was 12.5%, the “DIR B (disease incident rate 7 days after treatment), MV (mean value)” value (“DIR B … (mean value)” for short) ([2]; 1 μg/ml, control 35.3) was 30.9% and the “DIR B (disease incident rate 7 days after treatment), I” value ([2]; 1 μg/ml) was 29.6%. For the same compound, the “DIR B (disease incident rate 7 days after treatment), II” value ([2]; 1 μg/ml) was 27.6%, the “DIR B (disease incident rate 7 days after treatment), III” value (“DIR B … III” for short) ([2]; 1 μg/ml) was 35.4% and the “PR (prevention rate)” value ([2]; 10 μg/ml) was 47.3%. The “DIR B … (mean value)” value ([2]; 10 μg/ml, control 35.3) was 18.6%, the “DIR B (disease incident rate 7 days after treatment), I” value ([2]; 10 μg/ml) was 13.5% and the “DIR B (disease incident rate 7 days after treatment), II” value ([2]; 10 μg/ml) was 17.6%. For the same compound, the “DIR B … III” value ([2]; 10 μg/ml) was 24.8%, the “PR (prevention rate)” value ([2]; 100 μg/ml) was 61.5% and the “DIR B … (mean value)” value ([2]; 100 μg/ml, control 35.3) was 13.6%. For the same compound, the “DIR B (disease incident rate 7 days after treatment), I” value ([2]; 100 μg/ml) was 13.2%, the “DIR B (disease incident rate 7 days after treatment), II” value ([2]; 100 μg/ml) was 11.7% and the “DIR B … III” value ([2]; 100 μg/ml) was 15.8%. The “PR (prevention rate)” value ([2]; 300 μg/ml) was 71.7%, the “DIR B … (mean value)” value ([2]; 300 μg/ml, control 35.3) was 10.0% and the “DIR B (disease incident rate 7 days after treatment), I” value ([2]; 300 μg/ml) was 8.9%. For the same compound, the “DIR B (disease incident rate 7 days after treatment), II” value ([2]; 300 μg/ml) was 12.9%, the “DIR B … III” value ([2]; 300 μg/ml) was 8.3% and the “PR (prevention rate)” value ([2]; 1000 μg/ml) was 78.8%. For the same compound, the “DIR B … (mean value)” value ([2]; 1000 μg/ml, control 35.3) was 7.5%, the “DIR B (disease incident rate 7 days after treatment), I” value ([2]; 1000 μg/ml) was 5.9% and the “DIR B (disease incident rate 7 days after treatment), II” value ([2]; 1000 μg/ml) was 9.4%. For the same compound, the “DIR B … III” value ([2]; 1000 μg/ml) was 7.2%, the “PR (prevention rate)” value [2, 3] was 66.8% and the “DIR B … (mean value)” value [2, 4] was 6.3%. For the same compound, the “DIR B (disease incident rate 7 days after treatment), I” value [2, 3] was 5.2%, the “DIR B (disease incident rate 7 days after treatment), II” value [2, 3] was 6.1% and the “DIR B … III” value [2, 3] was 6.1%.

For `COc1ccc2cc3[n+](cc2c1OC)CCc1cc2c(cc1-3)OCO2` [berberine chloride], the “Growth inhibition, glomellera cingurata” value (glomellera cingurata) was “++”, the “Growth inhibition, damping-off of cucumber” value (damping-off of cucumber) was “++” and the “Growth inhibition, gray mold rot” value [1] was “+”. For the same compound, the “PR (prevention rate)” value ([2]; 1 μg/ml) was 12.2%, the “DIR B … (mean value)” value ([2]; 1 μg/ml, control 35.3) was 31.0% and the “DIR B (disease incident rate 7 days after treatment), I” value ([2]; 1 μg/ml) was 30.2%. The “DIR B (disease incident rate 7 days after treatment), II” value ([2]; 1 μg/ml) was 30.8%, the “DIR B … III” value ([2]; 1 μg/ml) was 32.1% and the “PR (prevention rate)” value ([2]; 10 μg/ml) was 38.2%. The “DIR B … (mean value)” value ([2]; 10 μg/ml, control 35.3) was 21.8%, the “DIR B (disease incident rate 7 days after treatment), I” value ([2]; 10 μg/ml) was 23.4% and the “DIR B (disease incident rate 7 days after treatment), II” value ([2]; 10 μg/ml) was 22.1%. The “DIR B … III” value ([2]; 10 μg/ml) was 19.9%, the “PR (prevention rate)” value ([2]; 100 μg/ml) was 73.7% and the “DIR B … (mean value)” value ([2]; 100 μg/ml, control 35.3) was 9.3%. For the same compound, the “DIR B (disease incident rate 7 days after treatment), I” value ([2]; 100 μg/ml) was 8.2%, the “DIR B (disease incident rate 7 days after treatment), II” value ([2]; 100 μg/ml) was 7.7% and the “DIR B … III” value ([2]; 100 μg/ml) was 12.1%. The “PR (prevention rate)” value ([2]; 300 μg/ml) was 77.3%, the “DIR B … (mean value)” value ([2]; 300 μg/ml, control 35.3) was 8.0% and the “DIR B (disease incident rate 7 days after treatment), I” value ([2]; 300 μg/ml) was 5.2%. For the same compound, the “DIR B (disease incident rate 7 days after treatment), II” value ([2]; 300 μg/ml) was 8.5%, the “DIR B … III” value ([2]; 300 μg/ml) was 10.3% and the “PR (prevention rate)” value ([2]; 1000 μg/ml) was 84.7%. For the same compound, the “DIR B … (mean value)” value ([2]; 1000 μg/ml, control 35.3) was 5.4%, the “DIR B (disease incident rate 7 days after treatment), I” value ([2]; 1000 μg/ml) was 3.4% and the “DIR B (disease incident rate 7 days after treatment), II” value ([2]; 1000 μg/ml) was 8.7%. For the same compound, the “DIR B … III” value ([2]; 1000 μg/ml) was 4.2%, the “PR (prevention rate)” value [2, 3] was 69.5^c % and the “DIR B … (mean value)” value [2, 4] was 5.8%. For the same compound, the “DIR B (disease incident rate 7 days after treatment), I” value [2, 3] was 5.9%, the “DIR B (disease incident rate 7 days after treatment), II” value [2, 3] was 5.1% and the “DIR B … III” value [2, 3] was 5.1%.

With `COc1ccc2cc3[n+](cc2c1OC)CCc1cc2c(cc1-3)OCO2.[I-]` [berberine iodide] the “Growth inhibition, glomellera cingurata” value (glomellera cingurata) was “+”, the “Growth inhibition, damping-off of cucumber” value (damping-off of cucumber) was “+” and the “Growth inhibition, gray mold rot” value [1] was “+”. The “PR (prevention rate)” value ([2]; 1 μg/ml) was 9.9%, the “DIR B … (mean value)” value ([2]; 1 μg/ml, control 35.3) was 31.8% and the “DIR B (disease incident rate 7 days after treatment), I” value ([2]; 1 μg/ml) was 30.2%. The “DIR B (disease incident rate 7 days after treatment), II” value ([2]; 1 μg/ml) was 29.5%, the “DIR B … III” value ([2]; 1 μg/ml) was 35.8% and the “PR (prevention rate)” value ([2]; 10 μg/ml) was 35.4%. For the same compound, the “DIR B … (mean value)” value ([2]; 10 μg/ml, control 35.3) was 22.8%, the “DIR B (disease incident rate 7 days after treatment), I” value ([2]; 10 μg/ml) was 25.8% and the “DIR B (disease incident rate 7 days after treatment), II” value ([2]; 10 μg/ml) was 23.1%. The “DIR B … III” value ([2]; 10 μg/ml) was 19.6%, the “PR (prevention rate)” value ([2]; 100 μg/ml) was 73.1% and the “DIR B … (mean value)” value ([2]; 100 μg/ml, control 35.3) was 9.5%. For the same compound, the “DIR B (disease incident rate 7 days after treatment), I” value ([2]; 100 μg/ml) was 10.2%, the “DIR B (disease incident rate 7 days after treatment), II” value ([2]; 100 μg/ml) was 8.9% and the “DIR B … III” value ([2]; 100 μg/ml) was 9.3%. For the same compound, the “PR (prevention rate)” value ([2]; 300 μg/ml) was 78.8%, the “DIR B … (mean value)” value ([2]; 300 μg/ml, control 35.3) was 7.5% and the “DIR B (disease incident rate 7 days after treatment), I” value ([2]; 300 μg/ml) was 6.2%. For the same compound, the “DIR B (disease incident rate 7 days after treatment), II” value ([2]; 300 μg/ml) was 7.9%, the “DIR B … III” value ([2]; 300 μg/ml) was 8.4% and the “PR (prevention rate)” value ([2]; 1000 μg/ml) was 82.2%. The “DIR B … (mean value)” value ([2]; 1000 μg/ml, control 35.3) was 6.3%, the “DIR B (disease incident rate 7 days after treatment), I” value ([2]; 1000 μg/ml) was 4.3% and the “DIR B (disease incident rate 7 days after treatment), II” value ([2]; 1000 μg/ml) was 9.3%. For the same compound, the “DIR B … III” value ([2]; 1000 μg/ml) was 5.2%, the “PR (prevention rate)” value [2, 3] was 63.2% and the “DIR B … (mean value)” value [2, 4] was 7.0%. For the same compound, the “DIR B (disease incident rate 7 days after treatment), I” value [2, 3] was 7.1%, the “DIR B (disease incident rate 7 days after treatment), II” value [2, 3] was 6.6% and the “DIR B … III” value [2, 3] was 6.6%.
